Patent US10258607B2, “Method of increasing intratumoral pHe and reducing acid-mediated invasion” (H. Lee Moffitt Cancer Center and Research Institute, Inc., priority 2009, dated 2019)
“Also recorded” adds a separate entry of the source.

Key:
[1] = high doses; cited from earlier work
[2] = system: luciferase-expressing PC3M prostate cancer cells; test: In vivo experimental lung metastasis model, IEPA in drinking water; set-up: species or system mice
Experimental: FIG. 10 illustrates (A) the chemical structure of IEPA and (B) an experimental timetable. For the experiment mice (n=10) were started on 200 mM IEPA, or tap water (n=10) at time 0. Four days later 5×10^6 PC3M cells were injected intravenously in to the mice. Images were acquired weekly, and animal were euthanized at week 6 post-injections
Mice were imaged in a ventral view weekly for 6 weeks using the in vivo Imaging System (IVIS, Xenogen).
A region of interest (ROI) was manually selected over the signal intensity. The area of the ROI was kept constant and the intensity was recorded as maximum [photons/sec].
In these experiments, 10 mice were provided with ad libidum 200 mM of 2-imidazole-1-yl-3-ethoxycarbonylpropionic acid (IEPA) in their drinking water and 10 mice were maintained on water.
Four days after initiation of therapy, all animals were injected with luciferase-expressing PC3M prostate cancer cells. […] NMR in biomedicine 2002; 15(2):114-9; van Sluis R, et al., In vivo imaging of extracellular pH using 1H MRSI. Magn Reson Med 1999; 41(4):743-50].

[3] = system: spontaneous and experimental metastases; conditions: chronic consumption of sodium bicarbonate solution; cited from earlier work
[4] = system: widely metastatic renal cancer; test: Case report: patient with metastatic renal cancer
[5] = 25-50 grams daily, greater than 1 year, patients with renal tubular acidosis and sickle cell anemia; cited from earlier work
[6] = cited from earlier work
[7] = self-administered 40 grams of NaHCO3 daily, scans Dec. 5, 2007 and Apr. 18, 2008

CCOC(=O)CC(C(=O)O)n1ccnc1 (stereo not drawn) [IEPA, 2-imidazole-1-yl-3-ethoxycarbonylpropionic acid]
toxicity in vivo [1]: non-toxic at high doses
animal weight / weight gain and grooming behavior vs controls ([2]; 200 mM IEPA in drinking water): not different from controls
lung metastases compared to control group ([2]; 200 mM IEPA in drinking water from 4 days before i.v. injection of 5×10^6 PC3M cells, weekly imaging for 6 weeks, p<0.02): significantly fewer lung metastases; also recorded: significantly inhibits lung metastasis
mean in vivo photon count, whole animal and lungs, vs tap water group ([2]; 200 mM IEPA in drinking water, p<0.002 Wilcoxon two sample test): significantly different

O=C([O-])O.[Na+] [NaHCO3, sodium bicarbonate]
spontaneous and experimental metastases [3]: inhibited
tolerability ([4]; "very high" bicarbonate administration for nearly 1 year): without complication
duration of stable tumor ([4]; person, approximately 60 grams of bicarbonate in water daily with vitamins, supplements, no conventional therapy): 10 months
central necrosis of tumors on follow-up CT scan [4, 7]: no longer present
liver lesions on CT scans [4, 7]: some of the liver lesions have increased in size, some have decreased in size, and some have remained stable
adverse effects on chronic administration [5]: without adverse affects

CCN(CC)CCNC(=O)c1c(C)[nH]c(/C=C2\C(=O)Nc3ccc(F)cc32)c1C [Sutent]
tumor response ([4]; first line treatment of liver metastatic disease): the tumor progressed

C[N+](C)(C)CCN [cholamine chloride]
pKa [6]: 7.1

NCCCC[C@H](N)C(=O)O [free-base lysine, L-lysine]
pKa1 ([6]; L-lysine with three pKa's): 2.20
pKa2 ([6]; L-lysine with three pKa's): 8.90
pKa3 ([6]; L-lysine with three pKa's): 10.28
